Experimental data reported in ChEMBL document CHEMBL1201862, “PubChem BioAssay data set” (2004).
Active and inactive are the calls of the source.

Columns and labels:
[1] = HEK-293T viability loss after treatment – luminescence, T-cell screen hits, cytotoxicity control for TCR NF-kB inhibitor project, dose response (AID 489026); format: functional, cell-based;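 also: cells exposed to compound about 14 hours before the viability readout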
Cytochrome P450 2C9 [2] = molecular target: T1, Cytochrome P450 2C9 (Homo sapiens, UniProt P11712)
T1 sequence (P11712 whole entry): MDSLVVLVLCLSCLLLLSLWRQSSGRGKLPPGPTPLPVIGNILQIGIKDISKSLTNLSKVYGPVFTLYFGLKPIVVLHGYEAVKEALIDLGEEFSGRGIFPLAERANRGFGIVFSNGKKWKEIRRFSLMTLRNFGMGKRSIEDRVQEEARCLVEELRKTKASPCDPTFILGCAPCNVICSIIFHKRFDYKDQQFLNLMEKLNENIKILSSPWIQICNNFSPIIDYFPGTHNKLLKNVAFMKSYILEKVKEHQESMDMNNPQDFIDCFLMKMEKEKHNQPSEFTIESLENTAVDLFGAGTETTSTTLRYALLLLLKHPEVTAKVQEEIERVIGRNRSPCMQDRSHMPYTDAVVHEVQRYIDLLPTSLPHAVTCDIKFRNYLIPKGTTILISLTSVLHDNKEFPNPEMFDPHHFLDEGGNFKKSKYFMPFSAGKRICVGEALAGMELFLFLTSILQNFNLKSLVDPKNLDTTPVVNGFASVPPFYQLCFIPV

Cytochrome P450 2D6 = Cytochrome P450 2D6 (Homo sapiens, UniProt P10635);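 also: CYP2D6 member of a cytochrome P450 panel assay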
Sequence of Cytochrome P450 2D6 (P10635 whole entry): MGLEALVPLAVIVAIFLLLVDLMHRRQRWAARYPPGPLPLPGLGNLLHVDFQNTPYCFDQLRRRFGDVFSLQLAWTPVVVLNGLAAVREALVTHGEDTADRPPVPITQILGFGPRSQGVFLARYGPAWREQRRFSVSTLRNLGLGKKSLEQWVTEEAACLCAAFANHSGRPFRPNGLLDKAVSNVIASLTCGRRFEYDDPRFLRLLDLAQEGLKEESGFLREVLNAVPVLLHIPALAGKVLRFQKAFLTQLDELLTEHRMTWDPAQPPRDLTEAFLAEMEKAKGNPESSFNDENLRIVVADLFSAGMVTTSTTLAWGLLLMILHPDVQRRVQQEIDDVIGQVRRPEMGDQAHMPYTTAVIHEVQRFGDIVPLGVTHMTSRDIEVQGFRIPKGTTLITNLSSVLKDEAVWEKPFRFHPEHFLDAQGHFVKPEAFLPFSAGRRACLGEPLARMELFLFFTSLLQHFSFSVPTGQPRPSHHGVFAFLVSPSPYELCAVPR

[3] = molecular target: T2, Zinc finger protein mex-5 (Caenorhabditis elegans, UniProt Q9XUB2); assay: potency of MEX-5 RNA-binding blockers – biochemical, C. elegans, fluorescence polarization, dose response (AID 1960)
T2 sequence (Q9XUB2 whole entry): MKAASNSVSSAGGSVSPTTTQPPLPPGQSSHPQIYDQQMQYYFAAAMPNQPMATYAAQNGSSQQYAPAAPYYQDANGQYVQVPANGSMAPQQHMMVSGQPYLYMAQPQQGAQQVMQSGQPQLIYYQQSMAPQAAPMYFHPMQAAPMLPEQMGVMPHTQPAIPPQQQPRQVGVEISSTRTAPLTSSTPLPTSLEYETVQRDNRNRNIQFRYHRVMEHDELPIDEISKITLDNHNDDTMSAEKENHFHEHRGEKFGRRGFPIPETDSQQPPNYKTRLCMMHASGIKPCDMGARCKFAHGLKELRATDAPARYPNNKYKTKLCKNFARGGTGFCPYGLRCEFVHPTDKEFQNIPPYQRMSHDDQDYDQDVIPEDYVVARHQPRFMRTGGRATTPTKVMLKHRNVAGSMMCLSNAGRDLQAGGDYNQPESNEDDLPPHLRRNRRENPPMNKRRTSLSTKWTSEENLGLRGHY

[4] = NIH-3T3 fibroblast cytotoxicity, dose response, cytotoxicity control, cell-based, fluorescence, Alamar Blue, secondary assay (AID 2327); format: functional;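 also: NIH-3T3 mouse fibroblasts cultured with fluconazole at 8 µg/mL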
HEK293 [5] = assay: cells; settings: Homo sapiens
[6] = molecular target: T3, RNA-binding protein pos-1 (Caenorhabditis elegans, UniProt G5EF15); assay: disruptors of C. elegans POS-1 RNA interaction – biochemical, fluorescence polarization, dose response (AID 1964);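 also: purified POS-1 fused to maltose binding protein made in E. coli; potency of compounds blocking POS-1 binding to fluorescent RNA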
T3 sequence (G5EF15 whole entry): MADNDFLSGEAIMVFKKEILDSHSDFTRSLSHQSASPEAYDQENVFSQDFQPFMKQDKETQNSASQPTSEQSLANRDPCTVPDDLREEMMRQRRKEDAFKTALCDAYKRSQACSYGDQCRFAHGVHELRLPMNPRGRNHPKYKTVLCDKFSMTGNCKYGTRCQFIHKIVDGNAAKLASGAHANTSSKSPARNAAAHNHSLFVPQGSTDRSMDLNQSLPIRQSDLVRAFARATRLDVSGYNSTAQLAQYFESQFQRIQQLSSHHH

[7] = fluconazole-exposed Candida albicans growth modulators – fluorescence, retest, confirmation (AID 2467); format: functional, cell-based
HEK293 [8] = assay: cells; settings: Homo sapiens; remark: listed apart in the source
fMet-Leu-Phe receptor = molecular target: T4, fMet-Leu-Phe receptor (Homo sapiens, UniProt P21462); assay: formyl peptide receptor binders – dose response (AID 519); format: functional
T4 sequence (P21462 whole entry): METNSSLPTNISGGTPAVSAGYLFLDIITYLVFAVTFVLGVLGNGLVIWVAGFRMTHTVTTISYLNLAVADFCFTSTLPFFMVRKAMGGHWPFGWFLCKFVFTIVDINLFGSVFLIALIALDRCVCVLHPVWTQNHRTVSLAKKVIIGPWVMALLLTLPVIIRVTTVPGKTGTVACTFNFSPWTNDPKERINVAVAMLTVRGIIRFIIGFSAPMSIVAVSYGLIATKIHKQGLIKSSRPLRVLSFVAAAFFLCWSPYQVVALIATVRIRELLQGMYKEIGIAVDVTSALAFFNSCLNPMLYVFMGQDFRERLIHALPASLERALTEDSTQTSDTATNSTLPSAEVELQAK

[9] = molecular target: Glyceraldehyde-3-phosphate dehydrogenase (Homo sapiens, UniProt P04406)
Sequence of Glyceraldehyde-3-phosphate dehydrogenase (P04406 whole entry): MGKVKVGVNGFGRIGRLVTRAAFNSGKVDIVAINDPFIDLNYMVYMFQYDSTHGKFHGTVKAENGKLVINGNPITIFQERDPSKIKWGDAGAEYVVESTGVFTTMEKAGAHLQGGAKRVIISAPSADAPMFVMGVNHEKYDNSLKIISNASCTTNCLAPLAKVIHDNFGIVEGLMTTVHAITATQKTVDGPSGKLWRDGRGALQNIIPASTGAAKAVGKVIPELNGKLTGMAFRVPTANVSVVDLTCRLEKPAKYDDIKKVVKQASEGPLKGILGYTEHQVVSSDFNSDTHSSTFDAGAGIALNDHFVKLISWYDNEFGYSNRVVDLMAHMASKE

[10] = molecular target: T5, Alkaline phosphatase, tissue-nonspecific isozyme (Homo sapiens, UniProt P05186); assay: potency against alkaline phosphatase TNAP – biochemical, luminescent, dose response, SAR follow-up (AID 1056)
T5 sequence (P05186 whole entry): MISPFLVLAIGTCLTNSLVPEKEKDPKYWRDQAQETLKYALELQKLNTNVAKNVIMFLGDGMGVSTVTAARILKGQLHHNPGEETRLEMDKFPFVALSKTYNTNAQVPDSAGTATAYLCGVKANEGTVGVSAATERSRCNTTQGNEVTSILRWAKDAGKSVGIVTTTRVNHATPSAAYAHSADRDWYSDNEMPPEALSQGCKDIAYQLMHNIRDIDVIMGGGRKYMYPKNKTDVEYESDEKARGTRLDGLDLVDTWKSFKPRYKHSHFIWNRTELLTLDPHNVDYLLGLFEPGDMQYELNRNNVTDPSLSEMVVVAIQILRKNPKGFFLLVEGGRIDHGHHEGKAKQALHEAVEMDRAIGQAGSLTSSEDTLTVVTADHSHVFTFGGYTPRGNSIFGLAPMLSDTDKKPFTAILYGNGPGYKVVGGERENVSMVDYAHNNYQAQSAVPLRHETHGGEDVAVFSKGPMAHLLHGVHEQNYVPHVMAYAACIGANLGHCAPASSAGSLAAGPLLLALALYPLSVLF

Protein Wnt-3a = Protein Wnt-3a (Mus musculus, UniProt P27467); assay: antagonism of Wnt3a pathway luciferase reporter – Wnt-LIGHT cells, luminescence, selectivity assay for Gli-SUFU antagonist project, dose response (AID 651570); format: functional; settings: read-out: IC50_Mean;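 also: Wnt-LIGHT reporter cells stimulated with conditioned medium from Wnt3a-producing cells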
Sequence of Protein Wnt-3a (P27467 whole entry): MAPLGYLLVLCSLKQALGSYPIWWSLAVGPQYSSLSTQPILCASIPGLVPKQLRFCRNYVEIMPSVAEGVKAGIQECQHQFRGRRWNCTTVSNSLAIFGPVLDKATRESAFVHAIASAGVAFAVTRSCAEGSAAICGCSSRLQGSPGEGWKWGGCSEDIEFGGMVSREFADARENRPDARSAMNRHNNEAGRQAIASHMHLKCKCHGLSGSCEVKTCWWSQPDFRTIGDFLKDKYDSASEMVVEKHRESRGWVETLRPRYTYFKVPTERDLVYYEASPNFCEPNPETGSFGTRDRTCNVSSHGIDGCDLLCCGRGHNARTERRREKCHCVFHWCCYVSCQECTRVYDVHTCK

Vero = assay: host cell viability loss, Vero E6 – synthesized analogs, cytotoxicity control for West Nile virus antiviral project, SAR follow-up (AID 2244); format: functional; settings: Chlorocebus sabaeus
Cytochrome P450 2C9 [11] = molecular target: T1, Cytochrome P450 2C9; settings: Potency
Estrogen receptor = molecular target: T6, Estrogen receptor (Homo sapiens, UniProt P03372);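 also: potency for inhibiting coactivator peptide recruitment to the receptor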
T6 sequence (P03372 whole entry): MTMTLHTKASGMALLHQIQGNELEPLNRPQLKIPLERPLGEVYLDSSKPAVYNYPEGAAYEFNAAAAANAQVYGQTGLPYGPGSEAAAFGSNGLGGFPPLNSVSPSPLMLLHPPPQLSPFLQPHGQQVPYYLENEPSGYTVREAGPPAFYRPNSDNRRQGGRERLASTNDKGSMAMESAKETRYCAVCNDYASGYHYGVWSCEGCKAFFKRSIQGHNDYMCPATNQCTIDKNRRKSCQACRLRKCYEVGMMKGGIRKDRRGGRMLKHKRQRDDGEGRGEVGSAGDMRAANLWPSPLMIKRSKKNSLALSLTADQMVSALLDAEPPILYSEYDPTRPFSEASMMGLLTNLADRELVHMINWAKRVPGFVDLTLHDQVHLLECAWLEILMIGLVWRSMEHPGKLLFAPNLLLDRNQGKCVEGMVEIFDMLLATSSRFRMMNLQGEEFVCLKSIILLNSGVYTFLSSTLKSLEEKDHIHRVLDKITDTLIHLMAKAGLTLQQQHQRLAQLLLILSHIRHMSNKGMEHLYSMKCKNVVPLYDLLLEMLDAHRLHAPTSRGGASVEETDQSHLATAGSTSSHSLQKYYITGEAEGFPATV

[12] = test system: Streptococcus sp. 'group A'; assay: Streptococcus pyogenes SK(-)GAS viability under kanamycin – luminescence, BacTiterGlo, confirmation, counter-screen for streptokinase expression inhibitor project, dose response (AID 1900); format: functional, organism-based
[13] = HepG2 cell cytotoxicity, dose response, cytotoxicity control for non-replicating M. tuberculosis project (AID 489018); format: functional; settings: Mycobacterium tuberculosis
[14] = THP-1 cell cytotoxicity, dose response, cytotoxicity control for non-replicating M. tuberculosis project (AID 489025); format: functional
[15] = Vero E6 cell cytotoxicity, dose response, cytotoxicity control for non-replicating M. tuberculosis project, secondary assay (AID 492998); format: functional, VeroE6; settings: Vero C1008
cells = format: functional
Streptococcus = assay: GAS UMAA2166 growth inhibition – luminescence, BacTiterGlo, counter-screen for streptokinase expression inhibitor project, dose response (AID 1915); format: functional, organism-based;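 also: potency for reduction of bacterial viability or growth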
Escherichia coli = assay: microbe, parasite or virus in culture

## CC(=O)Nc1ccc(S(=O)(=O)N2CCCc3ccccc32)cc1
[1]
  IC50: > 80 µM (inactive)

## O=C(O)c1ccc(/C=N\N=C2c3ccccc3-c3ccccc32)cc1
Cytochrome P450 2C9 [2]
  AC50: 7.94 µM (inconclusive)
Cytochrome P450 2D6
  AC50: inconclusive

## COc1ccc(-c2nnc(Nc3nc4c(OC)cccc4s3)o2)c(OC)c1
[3]
  EC50: 61.3 µM (active)
[4]
  EC50: > 150 µM (inconclusive)
HEK293 [5]
  EC50: > 59.6 µM (inactive)
[6]
  EC50: > 300 µM (not active)
[7]
  EC50: > 38 µM (not active)
HEK293 [8]
  EC50: > 59.6 µM (inactive)
fMet-Leu-Phe receptor
  Ki: > 66.7 µM (inactive)

## O=S(=O)(Nc1cnc2ccccc2c1)c1cc(Cl)ccc1F
[9]
  IC50: > 100 µM (not active)
[10]
  IC50: 4.26 µM (active)

## COc1ccc(CNc2cc(C)nc3ncnn23)c(OC)c1
Protein Wnt-3a
  IC50: 4.21 µM (active)

## O=C(CSc1nc2ccccc2c(=O)n1-c1ccc(F)cc1)Nc1ccc2c(c1)OCCO2
Vero
  CC50: > 40 µM (active)

## CCCCC1C(=O)N(c2ccccc2)N(c2ccccc2)C1=O [PHENYLBUTAZONE]
Cytochrome P450 2C9 [11]
  AC50: 31.6 µM (inconclusive)
Estrogen receptor
  IC50: > 50 µM (not active)
fMet-Leu-Phe receptor
  Ki: 5.3 µM (active)

## CN(c1ccccc1)S(=O)(=O)c1ccc(C(=O)Nc2nnc(-c3ccc(F)cc3)o2)cc1
[12]
  EC50: 0.159 µM (active)
[13]
  CC50: 15.6 µM (active)
[14]
  CC50: 17.2 µM (active)
[15]
  CC50: 7.81 µM (active)
cells
  IC50: > 50 µM (active)
Streptococcus
  EC50: 2.93 µM (active)

## CCCn1c(=N)c(S(=O)(=O)c2ccc(F)cc2)cc2c(=O)n3cccc(C)c3nc21
Escherichia coli
  AC50: 42.8 µM (active)
